Source: PubChem BioAssay AID1208 (EPA DSSTox, 2008)
Active and inactive are the calls of the source.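 The calls were made as follows: active = at least one rat sex group has a carcinogenic potency value and tumor site recorded; inconclusive = only rat studies were judged inadequate by the national testing program; inactive = no potency or tumor site, with negative rat experiments.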 *1 amine or outer side, *2 acyl side, *3 side chain or, on linkers, in order; H or OH if unused. Where a SMILES comes first, the peptide text is derived from it. Bridges are numbered along the chain shown (N, C = ends). Roman numbers before positions name the chains, in order. [ ]: non-standard residue; d: D form. Actinocin(1to9) = Cc1c2oc3c(C)ccc(C(=O)[*:2])c3nc-2c(C(=O)[*:1])c(N)c1=O; d(aIle) = CC[C@H](C)[C@@H](N)C(=O)O; NMeV = CN[C@H](C(=O)O)C(C)C; Sar = CNCC(=O)O

System: rat chronic carcinogenicity bioassay, TD50
Test: DSSTox (CPDBAS) Carcinogenic Potency Database Summary Rat Bioassay Results
Conditions: for Potency: active compounds read low
Outline: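 Chronic long-term rat cancer bioassays from literature and NCI/NTP, taking the most positive result per sex. TD50 in mmol converted to a 1–100 Activity Score from log10(1/TD50). Mixtures lacking TD50 scored 50.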

[1] = TargetSites_Rat_Female: stomach
[2] = TD50_Rat_Note: no positive results
[3] = TD50_Rat_Note: no positive results, TargetSites_Rat_Female: no positive results
[4] = TD50_Rat_Note: TD50 is harmonic mean of more than one positive test, TargetSites_Rat_Female: adrenal gland
[5] = TD50_Rat_Note: TD50 is harmonic mean of more than one positive test, TargetSites_Rat_Female: liver
[6] = TargetSites_Rat_Female: no positive results

## CN(C#N)N=O
[1]
  Potency: 0.48 mg/kg/day

## Nc1ccc2c(c1)oc1ccccc12
  Potency: 2.48 mg/kg/day

## O=C(O)c1ccc([N+](=O)[O-])cc1
TargetSites_Rat_Female: clitoral gland
  Potency: 287 mg/kg/day

## C#C[C@]1(O)CC[C@H]2[C@@H]3CCc4cc(O)ccc4[C@H]3CC[C@@]21C
TargetSites_Rat_Female: liver
  Potency: 0.2 mg/kg/day

## CCCCC/C=C\C/C=C\CCCCCCCC(=O)OC
[2]
  outcome: inactive; no positive results

## CN(C)CCN(Cc1ccsc1)c1ccccn1
[3]
  outcome: inactive; no positive results

## Cc1ccc(S(=O)(=O)NC(=O)NN2CCCCCC2)cc1
[3]
  outcome: inactive; no positive results

## CN(N=O)c1ccc([N+](=O)[O-])cc1
[2]
  outcome: inactive; no positive results

## CCC1C(=O)OCC1Cc1cncn1C (stereo unspecified)
[3]
  outcome: inactive; no positive results

## O=[N+]([O-])c1ccc(Cl)cc1
[2]
  outcome: inactive; no positive results

## CC1(C)C(=O)Nc2ccc(C3=NNC(=O)CC3)cc21
[4]
  Potency: 2.01 mg/kg/day

## O=C1C(c2[nH]c3ccc(S(=O)(=O)O)cc3c2O)=Nc2ccc(S(=O)(=O)O)cc21
TD50_Rat_Note: no positive results, TargetSites_Rat_BothSexes: no positive results
  outcome: inactive

## N[C@@H](Cc1c[nH]c2ccccc12)C(=O)O
[3]
  outcome: inactive; no positive results

## c1ccc(NNc2ccccc2)cc1
TD50_Rat_Note: TD50 is harmonic mean of more than one positive test, TargetSites_Rat_Female: liver, mammary gland
  Potency: 5.59 mg/kg/day

## NC(=O)OCC(COC(N)=O)c1ccccc1
[5]
  Potency: 1090 mg/kg/day

## CN(C)c1ccc(C(=O)c2ccc(N(C)C)cc2)cc1
[5]
  Potency: 5.64 mg/kg/day

## Cc1cnc(NC(=O)C2=C(O)c3ccccc3S(=O)(=O)N2C)s1
[3]
  outcome: inactive; no positive results

## CCC1(c2ccccc2)C(=O)N=C(O)NC1=O (stereo unspecified)
[5]
  Potency: 86 mg/kg/day

## Cn1c(=O)c2[nH]cnc2n(C)c1=O
[3]
  outcome: inactive; no positive results

## CCCCCl
[3]
  outcome: inactive; no positive results

## CCC(C(=O)NC(N)=O)c1ccccc1 (stereo unspecified)
[2]
  outcome: inactive; no positive results

## C/C=C/C=C/C=O
TD50_Rat_Note: TD50 is harmonic mean of more than one positive test, TargetSites_Rat_Female: stomach
  Potency: 62.2 mg/kg/day

## Clc1cccc(-c2cccc(Cl)c2)c1
TD50_Rat_Note: no positive results are statistically significant, TD50_Rat_mmol was not calculated for this mixture, but Activiity Scor
  Potency: 157 mg/kg/day

## ClC(Cl)C(Cl)Cl
[3]
  outcome: inactive; no positive results

## CN(C)CCOC(C)(c1ccccc1)c1ccccn1 (stereo unspecified)
[6]
  Potency: 1610 mg/kg/day

## CC(C)=NNc1ncc(-c2ccc([N+](=O)[O-])o2)s1
[1]
  Potency: 6.05 mg/kg/day

## S=C=NCCCc1ccccc1
[2]
  outcome: inactive; no positive results

## O=C1CN(/N=C/c2ccc([N+](=O)[O-])o2)C(=O)N1
[6]
  Potency: 163 mg/kg/day

## Nc1nc(N)c2nc(-c3ccccc3)c(N)nc2n1
[3]
  outcome: inactive; no positive results

## CCN(N=O)C(=O)NCCO
TD50_Rat_Note: TD50 is harmonic mean of more than one positive test, TargetSites_Rat_Female: mammary gland, skin, uterus
  Potency: 0.522 mg/kg/day

## NC(Cc1ccc(O)c(O)c1)C(=O)O (stereo unspecified)
[2]
  outcome: inactive; no positive results

## CC(C(=O)O)c1cccc(C(=O)c2ccccc2)c1 (stereo unspecified)
[2]
  outcome: inactive; no positive results

## Cc1cccc(C)c1NC(=O)CN1CCCC1=O
[3]
  outcome: inactive; no positive results

## ClC1=C(Cl)[C@@]2(Cl)[C@@H]3[C@@H](Cl)[C@H](Cl)C[C@@H]3C1(Cl)C2(Cl)Cl
[3]
  outcome: inactive; no positive results

## COc1ccc2nc(S(=O)Cc3ncc(C)c(OC)c3C)[nH]c2c1 (stereo unspecified)
TD50_Rat_Note: TD50 is harmonic mean of more than one positive test, greater than ten-fold variation among TD50 values for positive res, TargetSites_Rat_Female: stomach
  Potency: 119 mg/kg/day

## CC/C(=C(/CC)c1ccc(O)cc1)c1ccc(O)cc1
TD50_Rat_Note: TD50 is harmonic mean of more than one positive test, greater than ten-fold variation among TD50 values for positive res, TargetSites_Rat_Female: liver, pituitary gland
  Potency: 0.223 mg/kg/day

## C/C=C1/C[C@@H](C)[C@](O)(CO)C(=O)OCC2=CCN3CC[C@@H](OC1=O)[C@@H]23
  Potency: 0.862 mg/kg/day

## CC(=O)OCC(=O)[C@@]12N=C(C)O[C@@H]1C[C@H]1[C@@H]3CCC4=CC(=O)C=C[C@]4(C)[C@H]3[C@@H](O)C[C@@]12C
TD50_Rat_Note: TD50 not calculated by CPDB Source, TD50_Rat_mmol was not calculated, but Activiity Score is assigned value of 50 to ind, TargetSites_Rat_Female: no positive results
  outcome: active; bone

## CN(N=O)c1ccc(F)cc1
  Potency: 0.255 mg/kg/day

## Clc1cccc(-c2cc(Cl)cc(Cl)c2)c1
TD50_Rat_Note: TD50_Rat_mmol was not calculated for this mixture, but Activiity Score is assigned value of 50 to indicate active, TargetSites_Rat_Female: liver
  Potency: 53.9 mg/kg/day

## CN(CC(O)CO)N=O (stereo unspecified)
TargetSites_Rat_Female: esophagus, liver, lung, nasal cavity
  Potency: 0.646 mg/kg/day

## COc1cc2c(c3oc(=O)c4c(c13)CC[C@H]4O)[C@@H]1C=CO[C@H]1O2
  Potency: 0.00247 mg/kg/day

## C#C[C@]1(OC(C)=O)CC[C@H]2[C@@H]3CCC4=C[C@@H](OC(C)=O)CC[C@@H]4[C@H]3CC[C@@]21C
[3]
  outcome: inactive

## FC(F)(F)C(Cl)Cl
TD50_Rat_Note: TD50 is harmonic mean of more than one positive test, greater than ten-fold variation among TD50 values for positive res, TargetSites_Rat_Female: liver
  Potency: 2370 mg/kg/day

## COCCl
  Potency: 5.5 mg/kg/day

## O=[N+]([O-])/C=C/c1ccccc1
[3]
  outcome: inactive; no positive results

## CC(=O)Nc1ccc(-c2ccc(F)cc2)cc1
  Potency: 1.01 mg/kg/day

## O=C(O)c1nn(Cc2ccc(Cl)cc2Cl)c2ccccc12
[3]
  outcome: inactive; no positive results

## Cl
[2]
  outcome: inactive; no positive results
[3]
  outcome: inactive; no positive results

## Nc1ccccc1-c1ccccc1
[3]
  outcome: inactive; no positive results

## Nc1ccc(-c2ccc(N)cc2)cc1
TargetSites_Rat_BothSexes: hematopoietic system, liver, mammary gland
  Potency: 1.73 mg/kg/day

## CN=[N+](C)[O-]
TD50_Rat_Note: TD50 is harmonic mean of more than one positive test
  Potency: 0.0466 mg/kg/day

## CC1=CC(=O)CC(C)(C)C1
[6]
  Potency: 1210 mg/kg/day

## CCCCCCCCCCCCCCCC(=O)OC/C=C(C)/C=C/C=C(C)/C=C/C1=C(C)CCCC1(C)C
[2]
  outcome: inactive; no positive results

## CC(CCl)OC(C)CCl (stereo unspecified)
[3]
  outcome: inactive; no positive results

## CC(=O)Nc1ccc(-c2ccccc2)cc1
TargetSites_Rat_Female: mammary gland
  Potency: 1.18 mg/kg/day

## CC[C@H](C)[C@H]1NC(=O)[C@@H](NC(=O)c2c3nc4c(C(=O)N[C@@H]5C(=O)N[C@H](C(C)C)C(=O)N6CCC[C@H]6C(=O)N(C)CC(=O)N(C)[C@@H](C(C)C)C(=O)O[C@@H]5C)ccc(C)c4oc-3c(C)c(=O)c2N)[C@@H](C)OC(=O)[C@H](C(C)C)N(C)C(=O)CN(C)C(=O)[C@@H]2CCCN2C1=O (I: T[d(aIle)]P[Sar][NMeV] / II: T[dV]P[Sar][NMeV]; ester I:1-I:C, II:1-II:C; linker I:N-II:N via Actinocin(1to9))
[2]
  outcome: inactive; no positive results

## Clc1ccc(Sc2cc(Cl)c(Cl)cc2Cl)cc1
[3]
  outcome: inactive; no positive results

## O=C1O[C@@H](CN2CCOCC2)CN1/N=C/c1ccc([N+](=O)[O-])o1
TargetSites_Rat_Female: hematopoietic system, kidney, mammary gland
  Potency: 6.33 mg/kg/day

## O=C1OC(c2ccc(O)cc2)(c2ccc(O)cc2)c2ccccc21
[4]
  Potency: 902 mg/kg/day

## CCOC(=O)C1OC1(C)c1ccccc1 (stereo unspecified)
[3]
  outcome: inactive; no positive results

## NC(=O)c1ccccc1C(N)=O
[3]
  outcome: inactive; no positive results

## CCC1(CC)C(=O)N=C(O)NC1=O
TD50_Rat_Note: TD50 is harmonic mean of more than one positive test, TargetSites_Rat_Female: no positive results
  Potency: 45.7 mg/kg/day

## N[C@@H](CCC(=O)O)C(=O)O
[3]
  outcome: inactive; no positive results

## CNC(=S)NC
[2]
  outcome: inactive; no positive results

## C1CCC(C(CC2CCCCN2)C2CCCCC2)CC1 (stereo unspecified)
[3]
  outcome: inactive; no positive results

## CNC(=O)Oc1cccc2ccccc12
TargetSites_Rat_BothSexes: all tumor bearing animals
  Potency: 14.1 mg/kg/day

## CC(=O)Nc1ccc(-c2ccccc2)cc1O
[3]
  outcome: inactive

## CCCCCCCCCCC(C)c1ccc(S(=O)(=O)O)cc1 (stereo unspecified)
[3]
  outcome: inactive; no positive results

## CC=O
TD50_Rat_Note: TD50 is harmonic mean of more than one positive test, TargetSites_Rat_Female: nasal cavity
  Potency: 153 mg/kg/day

## c1ccc2occc2c1
TargetSites_Rat_Female: kidney
  Potency: 424 mg/kg/day

## O=C(O)c1cc(O)c(O)c(O)c1
[2]
  outcome: inactive; no positive results

## CCSC[C@H](N)C(=O)O
[2]
  outcome: inactive; no positive results

## C[C@@H]1C/C=C/C=C/C=C/C=C/[C@H](O[C@@H]2O[C@H](C)[C@@H](O)[C@H](N)[C@@H]2O)C[C@@H]2O[C@](O)(C[C@@H](O)C[C@H]3O[C@@H]3/C=C/C(=O)O1)C[C@H](O)[C@H]2C(=O)O
[3]
  outcome: inactive; no positive results

## C=CCl
TD50_Rat_Note: TD50 is harmonic mean of more than one positive test, greater than ten-fold variation among TD50 values for positive res, TargetSites_Rat_Female: ear Zymbals gland, kidney, liver, mammary gland, nasal cavity, nervous system, vascular system
  Potency: 6.11 mg/kg/day

## O=c1c(O)c(-c2ccc(O)c(O)c2)oc2cc(O)cc(O)c12
TD50_Rat_Note: TD50 is harmonic mean of more than one positive test, greater than ten-fold variation among TD50 values for positive res, TargetSites_Rat_Female: small intestine, urinary bladder
  Potency: 10.1 mg/kg/day
[3]
  outcome: inactive; no positive results

## C[C@@H]1CCCCN1N=O
TargetSites_Rat_BothSexes: nervous system
  Potency: 20.4 mg/kg/day

## CCOC(=O)[C@H](CCc1ccccc1)N[C@@H](C)C(=O)N1Cc2ccccc2C[C@H]1C(=O)O
[3]
  outcome: inactive; no positive results

## F
[3]
  outcome: inactive; no positive results

## Cc1ccc(S(=O)(=O)OCCN(C)N=O)cc1
TD50_Rat_Note: TD50 is harmonic mean of more than one positive test, TargetSites_Rat_Female: liver, vascular system
  Potency: 4.8 mg/kg/day

## C1N2CN3CN1CN(C2)C3
[3]
  outcome: inactive; no positive results

## CC(C)[N+](=O)[O-]
[3]
  outcome: inactive; no positive results

## OCC1CO1 (stereo unspecified)
TD50_Rat_Note: TD50 is harmonic mean of more than one positive test, TargetSites_Rat_Female: clitoral gland, hematopoietic system, mammary gland, nervous system, oral cavity, stomach, thyroid gland
  Potency: 4.28 mg/kg/day

## c1ccc(N=Nc2ccccc2)cc1
TD50_Rat_Note: TD50 is harmonic mean of more than one positive test, TargetSites_Rat_Female: spleen
  Potency: 24.1 mg/kg/day
